Measured values as given in US10988523B2, “Modified lipidated Relaxin B chain peptides and their therapeutic use” (Sanofi, priority 2018, dated 2021).
*1 amine or outer side, *2 acyl side, *3 side chain or, on linkers, in order; H or OH if unused. Where a SMILES comes first, the peptide text is derived from it. Primed or numbered codes have the meaning given here. Side-chain parts run from the residue outwards. [ ]: non-standard residue; d: D form. The star is where a group is joined. γGlu = O=C(O)[C@H](CCC(=O)[*:2])N[*:1]; Stearoyl = CCCCCCCCCCCCCCCCCC(=O)*; Palmitoyl = CCCCCCCCCCCCCCCC(=O)*; Nle = CCCC[C@H](N)C(=O)O; PEG2″ = not defined here; Aib = CC(C)(N)C(=O)O

Target: T1, RXFP1 (Homo sapiens, UniProt Q9HBX9)
T1 construct: OVCAR5 cells expressing endogenous RXFP1; endogenous in cells; host or cells: OVCAR5 cells
T1 sequence (Q9HBX9 1-757): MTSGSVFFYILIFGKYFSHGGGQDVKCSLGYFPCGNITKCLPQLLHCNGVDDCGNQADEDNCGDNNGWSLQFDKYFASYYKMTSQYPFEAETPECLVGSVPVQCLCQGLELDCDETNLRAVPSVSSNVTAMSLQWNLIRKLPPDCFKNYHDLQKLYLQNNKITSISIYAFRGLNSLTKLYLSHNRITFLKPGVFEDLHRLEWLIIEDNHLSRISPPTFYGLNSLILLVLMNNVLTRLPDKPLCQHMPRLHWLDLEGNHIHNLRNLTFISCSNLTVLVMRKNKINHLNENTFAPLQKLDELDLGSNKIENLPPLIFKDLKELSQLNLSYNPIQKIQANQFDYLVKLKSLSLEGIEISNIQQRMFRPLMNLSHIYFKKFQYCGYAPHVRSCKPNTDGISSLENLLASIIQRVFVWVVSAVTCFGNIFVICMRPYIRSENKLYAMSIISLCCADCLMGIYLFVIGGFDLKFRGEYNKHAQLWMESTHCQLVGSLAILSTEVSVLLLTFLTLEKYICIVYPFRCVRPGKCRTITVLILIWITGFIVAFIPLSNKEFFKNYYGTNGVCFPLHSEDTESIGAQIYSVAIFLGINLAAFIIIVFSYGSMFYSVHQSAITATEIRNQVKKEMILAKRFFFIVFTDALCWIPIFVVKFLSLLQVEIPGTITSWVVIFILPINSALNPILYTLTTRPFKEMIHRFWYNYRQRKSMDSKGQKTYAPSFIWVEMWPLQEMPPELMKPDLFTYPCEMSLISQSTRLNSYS
Test: OVCAR5 cAMP assay (HTRF), RXFP1 agonist activity
Type: cell-based
Details: for EC50: OVCAR5 cells, cAMP HTRF, read-out: EC50 (nM), OVCAR 5 cells (cAMP); for Emax: OVCAR-5, read-out: EMax, OVCAR 5 cells (cAMP)
Source text: OVCAR5 cells expressing endogenous RXFP1 were used to test RXP1 agonist properties of peptides of the invention, and in particular of the peptides of sequence SEQ ID NO: 1-193.
Since RXFP1 is a Gs coupled GPCR, cAMP was used as readout of RXFP1 activation.
Isobutyl Methyl Xanthine (IBMX) was used to inhibit phosphodiesterase activity facilitating cAMP measurements. HTRF (Homogenous Time Resolved Fluorescence) technology was used to detect cAMP due to its great sensitivity.
In summary, OVCAR5 were grown in regular medium (RPMI) containing 10% fetal calf serum (FCS) and 1% antibiotics (penicillin/streptomycin).
Before the experiments, cells were detached with accutase and incubated for 40 minutes at 37° C. with 1 mM (3-isobutyl-1-methylxanthine) IBMX.
Cells were then distributed in 384 black well plates containing increasing concentrations of the different peptides in a fix volume of medium (without FCS).
After an incubation of 30 min at 37° C. in an humid incubator in 5% CO2, the reaction was stopped by adding a fixed volume of a solution containing a lysis buffer and cAMP-D2 (cAMP labeled with the dye d2) and the anti cAMP antibody linked to Europium and used for cAMP detection.
Readout of the experiment were performed on a fluorimeter allowing HTRF measurement. Activation curves were generated by plotting the intracellular value of cAMP versus log 10 of the compound concentration.
The 50% activation concentration (EC50) was calculated by nonlinear regression using the sigmoidal dose-response (variable slope) equation with Prism 5 software.
Emax % is determined as the maximal intracellular value of cAMP for test compound (upper limit of cAMP vs concentration curve) divided by the maximal intracellular value of cAMP for H2-relaxin determined in the same test occasion multiplied by 100. Emax %=100×[cAMPtest cpd]/[cAMPH2-RlX]

[1] = maximal cAMP relative to H2-relaxin maximum (100%)

Molecule | EC50 [nM] | EMax, OVCAR 5 cells (cAMP) [1] [%] | Emax [1] [%]
127 (Ac-LEGREKVRAK(Ac)I[Aib][Aib]EG[Nle]STWS[Aib]RKLK([PEG2″-PEG2″-PEG2″-γGlu-γGlu-γGlu-Stearoyl])-NH2) [compound 127] | 4.4 | 88 | 
174 (Ac-LEGREKVRAQI[Aib][Aib]EG[Nle]STWS[Aib]RKKK-NH2; not fully specified (residue 25); printed as Ac-L-E-G-R-E-K-V-R-A-Q-I-Aib-Aib-E-G-Nle-S-T-W-S-Aib-R-K-K-K(PEG2-PEG2-PEG2-gE-gE-gE-Stea)-NH2) [compound 174] | 0.41 |  | 
CCCCCCCCCCCCCCCC(=O)NCCCC[C@H](NC(=O)[C@H](CCCCN)NC(=O)[C@H](CCCNC(=N)N)NC(=O)C(C)(C)NC(=O)[C@H](CO)NC(=O)[C@H](Cc1c[nH]c2ccccc12)NC(=O)[C@@H](NC(=O)[C@H](CO)NC(=O)[C@H](CCCC)NC(=O)CNC(=O)[C@H](CCC(=O)O)NC(=O)C(C)(C)NC(=O)C(C)(C)NC(=O)[C@@H](NC(=O)[C@H](C)NC(=O)[C@H](C)NC(=O)[C@H](CCCNC(=N)N)NC(=O)[C@@H](NC(=O)[C@H](CCCCN)NC(=O)[C@H](CCC(=O)O)NC(=O)[C@H](CCCNC(=N)N)NC(=O)CNC(=O)[C@H](CCC(=O)O)NC(=O)[C@H](CC(C)C)NC(C)=O)C(C)C)[C@@H](C)CC)[C@@H](C)O)C(N)=O [compound 1] (Ac-LEGREKVRAAI[Aib][Aib]EG[Nle]STWS[Aib]RKK(Palmitoyl)-NH2) |  |  | 85
CCCCCCCCCCCCCCCC(=O)N[C@@H](CCC(=O)NCCCC[C@H](NC(=O)[C@H](CCCCN)NC(=O)[C@H](CCCNC(=N)N)NC(=O)C(C)(C)NC(=O)[C@H](CO)NC(=O)[C@H](Cc1c[nH]c2ccccc12)NC(=O)[C@@H](NC(=O)[C@H](CO)NC(=O)[C@H](CCCC)NC(=O)CNC(=O)[C@H](CCC(=O)O)NC(=O)C(C)(C)NC(=O)C(C)(C)NC(=O)[C@@H](NC(=O)[C@H](CCC(N)=O)NC(=O)[C@H](C)NC(=O)[C@H](CCCNC(=N)N)NC(=O)[C@@H](NC(=O)[C@H](CCCCN)NC(=O)[C@H](CCC(=O)O)NC(=O)[C@H](CCCNC(=N)N)NC(=O)CNC(=O)[C@H](CCC(=O)O)NC(=O)[C@H](CC(C)C)NC(C)=O)C(C)C)[C@@H](C)CC)[C@@H](C)O)C(N)=O)C(=O)O [compound 2] (Ac-LEGREKVRAQI[Aib][Aib]EG[Nle]STWS[Aib]RKK([γGlu-Palmitoyl])-NH2) |  |  | 100
CCCCCCCCCCCCCCCCCC(=O)N[C@@H](CCC(=O)NCCCC[C@H](NC(=O)[C@H](CCCCN)NC(=O)[C@H](CCCNC(=N)N)NC(=O)C(C)(C)NC(=O)[C@H](CO)NC(=O)[C@H](Cc1c[nH]c2ccccc12)NC(=O)[C@@H](NC(=O)[C@H](CO)NC(=O)[C@H](CCCC)NC(=O)CNC(=O)[C@H](CCC(=O)O)NC(=O)C(C)(C)NC(=O)C(C)(C)NC(=O)[C@@H](NC(=O)[C@H](CCC(N)=O)NC(=O)[C@H](C)NC(=O)[C@H](CCCNC(=N)N)NC(=O)[C@@H](NC(=O)[C@H](CCCCN)NC(=O)[C@H](CCC(=O)O)NC(=O)[C@H](CCCNC(=N)N)NC(=O)CNC(=O)[C@H](CCC(=O)O)NC(=O)[C@H](CC(C)C)NC(C)=O)C(C)C)[C@@H](C)CC)[C@@H](C)O)C(N)=O)C(=O)O [compound 3] (Ac-LEGREKVRAQI[Aib][Aib]EG[Nle]STWS[Aib]RKK([γGlu-Stearoyl])-NH2) |  |  | 93
CCCCCCCCCCCCCCCC(=O)N[C@@H](CCC(=O)N[C@@H](CCC(=O)NCCCC[C@H](NC(=O)[C@H](CCCCN)NC(=O)[C@H](CCCNC(=N)N)NC(=O)C(C)(C)NC(=O)[C@H](CO)NC(=O)[C@H](Cc1c[nH]c2ccccc12)NC(=O)[C@@H](NC(=O)[C@H](CO)NC(=O)[C@H](CCCC)NC(=O)CNC(=O)[C@H](CCC(=O)O)NC(=O)C(C)(C)NC(=O)C(C)(C)NC(=O)[C@@H](NC(=O)[C@H](C)NC(=O)[C@H](C)NC(=O)[C@H](CCCNC(=N)N)NC(=O)[C@@H](NC(=O)[C@H](CCCCN)NC(=O)[C@H](CCC(=O)O)NC(=O)[C@H](CCCNC(=N)N)NC(=O)CNC(=O)[C@H](CCC(=O)O)NC(=O)[C@H](CC(C)C)NC(=O)[C@H](CCC(=O)O)NC(C)=O)C(C)C)[C@@H](C)CC)[C@@H](C)O)C(N)=O)C(=O)O)C(=O)O [compound 4] (Ac-ELEGREKVRAAI[Aib][Aib]EG[Nle]STWS[Aib]RKK([γGlu-γGlu-Palmitoyl])-NH2) |  |  | 99
CCCCCCCCCCCCCCCC(=O)N[C@@H](CCC(=O)N[C@@H](CCC(=O)NCCCC[C@H](NC(=O)[C@H](CCCNC(=N)N)NC(=O)C(C)(C)NC(=O)[C@H](CO)NC(=O)[C@H](Cc1c[nH]c2ccccc12)NC(=O)[C@@H](NC(=O)[C@H](CO)NC(=O)[C@H](CCSC)NC(=O)CNC(=O)[C@H](CCC(=O)O)NC(=O)C(C)(C)NC(=O)C(C)(C)NC(=O)[C@@H](NC(=O)[C@H](CCC(N)=O)NC(=O)[C@H](C)NC(=O)[C@H](CCCNC(=N)N)NC(=O)[C@@H](NC(=O)[C@H](CCCCN)NC(=O)[C@H](CCC(=O)O)NC(=O)[C@H](CCCNC(=N)N)NC(=O)CNC(=O)[C@H](CCC(=O)O)NC(=O)[C@H](CC(C)C)NC(C)=O)C(C)C)[C@@H](C)CC)[C@@H](C)O)C(N)=O)C(=O)O)C(=O)O [compound 5] (Ac-LEGREKVRAQI[Aib][Aib]EGMSTWS[Aib]RK([γGlu-γGlu-Palmitoyl])-NH2) |  |  | 105
CCCCCCCCCCCCCCCC(=O)N[C@@H](CCC(=O)N[C@@H](CCC(=O)N[C@@H](CCC(=O)NCCCC[C@H](NC(=O)[C@H](CCCCN)NC(=O)[C@H](CCCCN)NC(=O)[C@H](CCCNC(=N)N)NC(=O)C(C)(C)NC(=O)[C@H](CO)NC(=O)[C@H](Cc1c[nH]c2ccccc12)NC(=O)[C@@H](NC(=O)[C@H](CO)NC(=O)[C@H](CCCC)NC(=O)CNC(=O)[C@H](CCC(=O)O)NC(=O)C(C)(C)NC(=O)C(C)(C)NC(=O)[C@@H](NC(=O)[C@H](C)NC(=O)[C@H](C)NC(=O)[C@H](CCCNC(=N)N)NC(=O)[C@@H](NC(=O)[C@H](CCCCN)NC(=O)[C@H](CCC(=O)O)NC(=O)[C@H](CCCNC(=N)N)NC(=O)CNC(=O)[C@H](CCC(=O)O)NC(=O)[C@H](CC(C)C)NC(=O)[C@H](CCC(=O)O)NC(C)=O)C(C)C)[C@@H](C)CC)[C@@H](C)O)C(N)=O)C(=O)O)C(=O)O)C(=O)O [compound 6] (Ac-ELEGREKVRAAI[Aib][Aib]EG[Nle]STWS[Aib]RKKK([γGlu-γGlu-γGlu-Palmitoyl])-NH2) |  |  | 100
CCCCCCCCCCCCCCCC(=O)N[C@@H](CCC(=O)N[C@@H](CCC(=O)N[C@@H](CCC(=O)NCCCC[C@H](NC(=O)[C@H](CCCCN)NC(=O)[C@H](CCCNC(=N)N)NC(=O)C(C)(C)NC(=O)[C@H](CO)NC(=O)[C@H](Cc1c[nH]c2ccccc12)NC(=O)[C@@H](NC(=O)[C@H](CO)NC(=O)[C@H](CCCC)NC(=O)CNC(=O)[C@H](CCC(=O)O)NC(=O)C(C)(C)NC(=O)C(C)(C)NC(=O)[C@@H](NC(=O)[C@H](CCC(N)=O)NC(=O)[C@H](C)NC(=O)[C@H](CCCNC(=N)N)NC(=O)[C@@H](NC(=O)[C@H](CCCCN)NC(=O)[C@H](CCC(=O)O)NC(=O)[C@H](CCCNC(=N)N)NC(=O)CNC(=O)[C@H](CCC(=O)O)NC(=O)[C@H](CC(C)C)NC(C)=O)C(C)C)[C@@H](C)CC)[C@@H](C)O)C(N)=O)C(=O)O)C(=O)O)C(=O)O [compound 8] (Ac-LEGREKVRAQI[Aib][Aib]EG[Nle]STWS[Aib]RKK([γGlu-γGlu-γGlu-Palmitoyl])-NH2) | 26.7 |  | 98
